Data: ChEMBL document CHEMBL1255385, “Constitutive SoxS expression in a fluoroquinolone-resistant strain with a truncated SoxR protein and identification of a new member of the marA-soxS-rob regulon, mdtG” (2010)
Converted amounts (≈) assume the structure as drawn.

Key:
[1] = test system: Escherichia coli; assay: Antimicrobial activity against fluoroquinolone-susceptible Escherichia coli PS5 harboring GyrA S83L mutant gene by Etest; type: functional
[2] = test system: Escherichia coli; assay: Antimicrobial activity against fluoroquinolone-resistant Escherichia coli NorE5 harboring GyrA S83L mutant, ParC S80R mutant, truncated SoxR and constitutively active SoxS by Etest; type: functional

SMILES	MIC [1]	MIC [2]
NCC[C@H](O)C(=O)N[C@@H]1C[C@H](N)[C@@H](O[C@H]2O[C@H](CN)[C@@H](O)[C@H](O)[C@H]2O)[C@H](O)[C@H]1O[C@H]1O[C@H](CO)[C@@H](O)[C@H](N)[C@H]1O [AMIKACIN]	12 µg/mL (≈ 20.5 µM)	12 µg/mL (≈ 20.5 µM)
CC1(C)S[C@@H]2[C@H](NC(=O)[C@H](N)c3ccc(O)cc3)C(=O)N2[C@H]1C(=O)O [AMOXICILLIN]	48 µg/mL (≈ 131 µM)	> 256 µg/mL
O=C(N[C@H](CO)[C@H](O)c1ccc([N+](=O)[O-])cc1)C(Cl)Cl [CHLORAMPHENICOL]	8 µg/mL (≈ 24.8 µM)	64 µg/mL (≈ 198 µM)
CC[C@H]1OC(=O)[C@H](C)[C@@H](O[C@H]2C[C@@](C)(OC)[C@@H](O)[C@H](C)O2)[C@H](C)[C@@H](O[C@@H]2O[C@H](C)C[C@H](N(C)C)[C@H]2O)[C@](C)(O)C[C@@H](C)C(=O)[C@H](C)[C@@H](O)[C@]1(C)O [ERYTHROMYCIN]	64 µg/mL (≈ 87.2 µM)	> 256 µg/mL
CCn1cc(C(=O)O)c(=O)c2ccc(C)nc21 [NALIDIXIC ACID]	1020 µg/mL (≈ 4410 µM)	2050 µg/mL (≈ 8820 µM)
CCn1cc(C(=O)O)c(=O)c2cc(F)c(N3CCNCC3)cc21 [NORFLOXACIN]	0.5 µg/mL (≈ 1.57 µM)	32 µg/mL (≈ 100 µM)
CN(C)[C@@H]1C(O)=C(C(N)=O)C(=O)[C@@]2(O)C(O)=C3C(=O)c4c(O)cccc4[C@@](C)(O)[C@H]3C[C@@H]12 [TETRACYCLINE]	2 µg/mL (≈ 4.5 µM)	8 µg/mL (≈ 18 µM)
COc1cc(Cc2cnc(N)nc2N)cc(OC)c1OC [TRIMETHOPRIM]	0.5 µg/mL (≈ 1.72 µM)	8 µg/mL (≈ 27.6 µM)
